Target: T1, human GlyT1c transporter (Homo sapiens, UniProt P48067)
T1 construct: expressed in transfected cells; host or cells: CHO cells (recombinant; line hGlyT1c_5_CHO is named for the uptake assay)
T1 sequence (P48067 1-706): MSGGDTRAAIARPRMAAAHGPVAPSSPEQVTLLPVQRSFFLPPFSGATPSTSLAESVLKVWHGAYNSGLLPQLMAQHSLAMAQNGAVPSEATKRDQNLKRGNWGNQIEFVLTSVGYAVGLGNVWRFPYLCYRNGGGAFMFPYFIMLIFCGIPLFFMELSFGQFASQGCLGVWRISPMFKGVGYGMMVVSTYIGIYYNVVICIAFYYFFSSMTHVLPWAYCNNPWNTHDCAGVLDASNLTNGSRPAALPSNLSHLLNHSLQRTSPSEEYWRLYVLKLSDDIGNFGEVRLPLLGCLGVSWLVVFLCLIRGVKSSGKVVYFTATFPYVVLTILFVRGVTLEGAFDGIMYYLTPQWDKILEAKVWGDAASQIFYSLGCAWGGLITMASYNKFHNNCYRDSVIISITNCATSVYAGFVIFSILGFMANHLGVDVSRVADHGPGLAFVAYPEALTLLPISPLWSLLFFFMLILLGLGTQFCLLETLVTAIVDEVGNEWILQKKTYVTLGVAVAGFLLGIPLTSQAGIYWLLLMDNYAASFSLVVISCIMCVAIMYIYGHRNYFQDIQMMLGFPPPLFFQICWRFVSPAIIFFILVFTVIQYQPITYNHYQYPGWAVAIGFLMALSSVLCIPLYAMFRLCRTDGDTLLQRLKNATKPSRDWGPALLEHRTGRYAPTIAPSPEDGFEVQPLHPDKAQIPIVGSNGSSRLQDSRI
Assay: Radioligand binding assay using recombinant CHO cell membranes expressing human GlyT1
Conditions: radioligand binding to human GlyT1c transporter-expressing membranes
Excerpt: 2. Radioligand binding assays using recombinant CHO cell membranes expressing human GlyT1: […]

Row | Ki | Compound
1 | ≤ 100 nM | Cn1cnc(S(=O)(=O)N2C[C@H](NCCCCC(F)(F)F)[C@@H](c3ccc(F)cc3)C2)c1 [Example 732, (3R,4S)-4-(4-fluorophenyl)-1-[(1-methyl-1H-imidazol-4-yl)sulfonyl]-N-(5,5,5-trifluoropentyl)pyrrolidin-3-amine]
2 | ≤ 10 nM | CCCCC(F)(F)CN[C@H]1CN(S(=O)(=O)c2cn(C)cn2)C[C@@H]1c1ccc(F)cc1 [Example 733, (3R,4S)-N-(2,2-difluorohexyl)-4-(4-fluorophenyl)-1-[(1-methyl-1H-imidazol-4-yl)sulfonyl]pyrrolidin-3-amine]
3 | ≤ 100 nM | CCCC(F)(F)CN[C@H]1CN(S(=O)(=O)c2cn(C)cn2)C[C@@H]1c1ccc(F)cc1 [Example 734, (3R,4S)-N-(2,2-difluoropentyl)-4-(4-fluorophenyl)-1-[(1-methyl-1H-imidazol-4-yl)sulfonyl]pyrrolidin-3-amine]
4 | ≤ 10000 nM | Cn1cnc(S(=O)(=O)N2C[C@H](NC(=O)CCCC(C)(F)F)[C@@H](c3ccc(F)cc3)C2)c1 [Example 735, 5,5-difluoro-N-{(3R,4S)-4-(4-fluorophenyl)-1-[(1-methyl-1H-imidazol-4-yl)sulfonyl]pyrrolidin-3-yl}hexanamide]
5 | > 10000 nM | CC(=O)CCC(=O)N[C@H]1CN(S(=O)(=O)c2cn(C)cn2)C[C@@H]1c1ccc(F)cc1 [Example 738, N-{(3R,4S)-4-(4-fluorophenyl)-1-[(1-methyl-1H-imidazol-4-yl)sulfonyl]pyrrolidin-3-yl}-4-oxopentanamide]
6 | ≤ 100 nM | Cn1cnc(S(=O)(=O)N2C[C@H](NCCCCC(C)(F)F)[C@@H](c3ccc(F)cc3)C2)c1 [Example 739, (3R,4S)-N-(5,5-difluorohexyl)-4-(4-fluorophenyl)-1-[(1-methyl-1H-imidazol-4-yl)sulfonyl]pyrrolidin-3-amine]
7 | ≤ 1000 nM | Cn1cnc(S(=O)(=O)N2C[C@H](NC(=O)NCc3ccccc3)[C@@H](c3ccc(F)cc3)C2)c1 [Example 742, 1-benzyl-3-{(3R,4S)-4-(4-fluorophenyl)-1-[(1-methyl-1H-imidazol-4-yl)sulfonyl]pyrrolidin-3-yl}urea]

More lines, now with the values behind:

Row | Compound | Ki
8 | Cc1ccccc1-c1cc(N[C@H]2CN(S(=O)(=O)c3cn(C)cn3)C[C@@H]2c2ccc(F)cc2)ncn1 [Example 723, N-{(3R,4S)-4-(4-fluorophenyl)-1-[(1-methyl-1H-imidazol-4-yl)sulfonyl]pyrrolidin-3-yl}-6-(2-methylphenyl)pyrimidin-4-amine] | ≤ 100 nM
9 | Cc1cccc(-c2cc(N[C@H]3CN(S(=O)(=O)c4cn(C)cn4)C[C@@H]3c3ccc(F)cc3)ncn2)c1 [Example 724, N-{(3R,4S)-4-(4-fluorophenyl)-1-[(1-methyl-1H-imidazol-4-yl)sulfonyl]pyrrolidin-3-yl}-6-(3-methylphenyl)pyrimidin-4-amine] | ≤ 100 nM
10 | Cn1cnc(S(=O)(=O)N2C[C@H](Nc3cc(-c4ccccc4F)ncn3)[C@@H](c3ccc(F)cc3)C2)c1 [Example 726, 6-(2-fluorophenyl)-N-{(3R,4S)-4-(4-fluorophenyl)-1-[(1-methyl-1H-imidazol-4-yl)sulfonyl]pyrrolidin-3-yl}pyrimidin-4-amine] | ≤ 100 nM
11 | Cn1cnc(S(=O)(=O)N2C[C@H](Nc3cc(-c4cccc(F)c4)ncn3)[C@@H](c3ccc(F)cc3)C2)c1 [Example 727, 6-(3-fluorophenyl)-N-{(3R,4S)-4-(4-fluorophenyl)-1-[(1-methyl-1H-imidazol-4-yl)sulfonyl]pyrrolidin-3-yl}pyrimidin-4-amine] | ≤ 10 nM
12 | Cn1cnc(S(=O)(=O)N2C[C@H](Nc3cc(-c4cccc(Cl)c4)ncn3)[C@@H](c3ccc(F)cc3)C2)c1 [Example 729, 6-(3-chlorophenyl)-N-{(3R,4S)-4-(4-fluorophenyl)-1-[(1-methyl-1H-imidazol-4-yl)sulfonyl]pyrrolidin-3-yl}pyrimidin-4-amine] | ≤ 10 nM
13 | Cn1cnc(S(=O)(=O)N2C[C@H](Nc3cc(F)ccn3)[C@@H](c3ccc(F)cc3)C2)c1 [Example 736, 4-fluoro-N-{(3R,4S)-4-(4-fluorophenyl)-1-[(1-methyl-1H-imidazol-4-yl)sulfonyl]pyrrolidin-3-yl}pyridin-2-amine] | ≤ 1000 nM
14 | Cn1cnc(S(=O)(=O)N2C[C@H](Nc3ccc(F)cn3)[C@@H](c3ccc(F)cc3)C2)c1 [Example 737, 5-fluoro-N-{(3R,4S)-4-(4-fluorophenyl)-1-[(1-methyl-1H-imidazol-4-yl)sulfonyl]pyrrolidin-3-yl}pyridin-2-amine] | ≤ 100 nM
15 | Cn1cnc(S(=O)(=O)N2C[C@H](OCCNc3ccc(Cl)cc3)[C@@H](c3ccc(F)cc3)C2)c1 [Example 740, 4-chloro-N-[2-({(3R,4S)-4-(4-fluorophenyl)-1-[(1-methyl-1H-imidazol-4-yl)sulfonyl]pyrrolidin-3-yl}oxy)ethyl]aniline] | ≤ 10000 nM
16 | Cn1cnc(S(=O)(=O)N2C[C@@H](Nc3ccc(F)c(OC(F)(F)F)c3)[C@H](C3CCCCO3)C2)c1 (stereo partly drawn) [Example 741, (3S,4R)-N-[4-fluoro-3-(trifluoromethoxy)phenyl]-1-[(1-methyl-1H-imidazol-4-yl)sulfonyl]-4-(tetrahydro-2H-pyran-2-yl)pyrrolidin-3-amine] | ≤ 100 nM
17 | Cc1cc(N[C@H]2CN(S(=O)(=O)c3cn(C)cn3)C[C@@H]2c2ccc(F)cc2)ccc1Cl [Example 743, (3R,4S)-N-(4-chloro-3-methylphenyl)-4-(4-fluorophenyl)-1-[(1-methyl-1H-imidazol-4-yl)sulfonyl]pyrrolidin-3-amine] | ≤ 100 nM
18 | Cn1cnc(S(=O)(=O)N2C[C@H](Nc3cccc(OCC(F)(F)F)c3)[C@@H](c3ccc(F)cc3)C2)c1 [Example 744, (3R,4S)-4-(4-fluorophenyl)-1-[(1-methyl-1H-imidazol-4-yl)sulfonyl]-N-[3-(2,2,2-trifluoroethoxy)phenyl]pyrrolidin-3-amine] | ≤ 10 nM
19 | Cn1cnc(S(=O)(=O)N2C[C@H](Nc3ccc(F)c(-c4ccncc4)c3)[C@@H](c3ccc(F)cc3)C2)c1 [Example 746, (3R,4S)-4-(4-fluorophenyl)-N-[4-fluoro-3-(pyridin-4-yl)phenyl]-1-[(1-methyl-1H-imidazol-4-yl)sulfonyl]pyrrolidin-3-amine] | ≤ 10 nM
20 | Cc1cc(N[C@H]2CN(S(=O)(=O)c3cn(C)cn3)C[C@@H]2c2ccc(F)cc2)ccc1F [Example 747, (3R,4S)-N-(4-fluoro-3-methylphenyl)-4-(4-fluorophenyl)-1-[(1-methyl-1H-imidazol-4-yl)sulfonyl]pyrrolidin-3-amine] | ≤ 10 nM
21 | Cn1cnc(S(=O)(=O)N2C[C@H](Nc3ccc(F)c(-c4cncnc4)c3)[C@@H](c3ccc(F)cc3)C2)c1 [Example 749, (3R,4S)-4-(4-fluorophenyl)-N-[4-fluoro-3-(pyrimidin-5-yl)phenyl]-1-[(1-methyl-1H-imidazol-4-yl)sulfonyl]pyrrolidin-3-amine] | ≤ 10 nM
22 | Cn1cnc(S(=O)(=O)N2C[C@H](Nc3cc(-c4cccnc4)ccn3)[C@@H](c3ccc(F)cc3)C2)c1 [Example 750, N-{(3R,4S)-4-(4-fluorophenyl)-1-[(1-methyl-1H-imidazol-4-yl)sulfonyl]pyrrolidin-3-yl}-3,4'-bipyridin-2'-amine] | ≤ 100 nM
23 | Cn1cnc(S(=O)(=O)N2C[C@H](Nc3cc(-c4ccncc4)ccn3)[C@@H](c3ccc(F)cc3)C2)c1 [Example 751, N-{(3R,4S)-4-(4-fluorophenyl)-1-[(1-methyl-1H-imidazol-4-yl)sulfonyl]pyrrolidin-3-yl}-4,4'-bipyridin-2-amine] | ≤ 100 nM

From patent EP2970215B1, “PYRROLIDINE DERIVATIVES, PHARMACEUTICAL COMPOSITIONS CONTAINING THEM, AND THEIR USE IN THERAPY” (AbbVie Deutschland GmbH & Co. KG, priority 2013, dated 2014)
